The target in assay [1] is T1, RORγt (Homo sapiens, UniProt P51449).
T1 sequence (P51449 1-497 isoform P51449-2): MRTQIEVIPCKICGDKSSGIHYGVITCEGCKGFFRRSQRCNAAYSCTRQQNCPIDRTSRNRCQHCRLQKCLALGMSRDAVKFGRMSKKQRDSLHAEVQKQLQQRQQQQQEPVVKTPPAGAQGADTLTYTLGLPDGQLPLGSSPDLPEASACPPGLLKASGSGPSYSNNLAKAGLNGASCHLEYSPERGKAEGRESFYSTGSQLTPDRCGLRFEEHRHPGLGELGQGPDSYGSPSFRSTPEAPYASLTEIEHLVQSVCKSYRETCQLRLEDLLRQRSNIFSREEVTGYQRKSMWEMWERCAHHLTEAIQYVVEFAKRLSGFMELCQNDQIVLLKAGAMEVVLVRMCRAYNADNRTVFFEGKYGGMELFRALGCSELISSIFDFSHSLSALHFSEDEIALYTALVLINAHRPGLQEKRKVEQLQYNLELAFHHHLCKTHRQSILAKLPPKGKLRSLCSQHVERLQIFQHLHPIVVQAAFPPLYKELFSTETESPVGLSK
Nature of the assay: RORγt binding test using fluorescent-labeled synthetic ligand (TR-FRET). The following applies: for inhibition at 1 µM: test compound 1 μM, read-out: binding inhibitory rate (%) of fluorescent-labeled synthetic ligand to RORγt at test compound 1 μM. Here is the method: RORγt Binding Test Using Fluorescent-Labeled Synthetic Ligand
The binding activity of the test compound to RORγt was measured by a time resolved fluorescence resonance energy transfer (TR-FRET) utilizing histidine-tagged RORγt, fluorescent-labeled synthetic ligand, and terbium-labeled anti-histidine tag antibody (Invitrogen). First, a test compound diluted with an assay buffer (20 mM Tris-HCl (pH 7.5), 100 mM NaCl, 1 mM DTT, 0.1% BSA) was added to a 384 well plate by 3 μL. Then, RORγt diluted with an assay buffer to 240 nM was added by 3 μL, after which fluorescent-labeled synthetic ligand diluted with the assay buffer to 12 μM was added by 3 μL, and the mixture was stood at room temperature for 20 min. Thereafter, a terbium-labeled anti-histidine tag antibody diluted with the assay buffer to 8 nM was added by 3 μL. The mixture was stood at room temperature for 20 min, and fluorescence intensity (excitation wavelength 320 nm, fluorescence wavelength 520 nm, delay time 100 microseconds) was measured by Envision (PerkinElmer).
(In general: TR-FRET usually uses a lanthanide donor and a delayed reading to cut background.)

Assay [2] deals with T1, RORγt. The experiment in a line: Cofactor recruitment test (Alpha Screen, biotinylated SRC-1 peptide). In kind it is biochemical. The following applies: for inhibition at 1 µM: read-out: signal value inhibitory rate (%) at test compound 1 μM. Here is the method: Cofactor Recruitment Test
Cofactor recruitment test was performed by Alpha Screen (Histidine Detection Kit, PerkinElmer) method. First, a test compound was diluted with an assay buffer (50 mM Tris-HCl (pH 7.5), 50 mM KCl, 1 mM DTT, 0.1% BSA) and added to a 384 well plate by 5 μL. […] The mixture was stood in a dark place for 1 hr, and the signal value was measured by Envision (PerkinElmer).

Assay [3] deals with T1, RORγt. The experiment in a line: Jurkat reporter test (human IL-17 ROR response element luciferase reporter, RORγt vector). As to conditions: Jurkat cells; for inhibition at 3 µM: test compound 3 μM, read-out: luminescence level inhibitory rate (%) at test compound 3 μM. In kind it is cell-based. How it is done: The Jurkat cells used for the reporter test were cultured in a culture medium (RPMI (Invitrogen), 10% FCS (AusGeneX), 100 U/mL penicillin, 100 μg/mL streptomycin). On the day of the test, 4×10^7 cells were recovered by a centrifugal operation (1000 rpm, for 5 min) and suspended in PBS (phosphate buffered saline) (Invitrogen). Thereafter, the cells were recovered again by a centrifugal operation, and suspended in 2 mL of R buffer (NEON transfection kit, Invitrogen). […] Gene transfer was performed by Electroporation apparatus (NEON, Invitrogen) under the conditions of pulse voltage 1350 V, interval 10 milliseconds, number of times 3. The cells after gene transfer were suspended in 40 mL of a reaction medium (RPMI, 10% Lipid reduced FCS (HyClone), 10 mM HEPES (pH 7.5), 100 U/mL penicillin, 100 μg/mL streptomycin, 5 μM lovastatin), and plated in a 96 well plate by 90 μL. A test compound diluted with the reaction medium was added by 10 μL, and the cells were cultured overnight in an incubator. Bright-Glo (Promega) was added by 100 μL, and the mixture was stirred at room temperature for 10 min, and the luminescence level was measured by Envision (PerkinElmer).
For orientation: Reporter assays use an easily measured gene product as a stand-in for the process of interest.

Molecules are shown by their SMILES. Where two headings read alike, the source gives them in different places.

Regarding `CC(C)n1c(=O)n(CC2CC2(F)F)c(=O)c2cc(NC(=O)N3CCOC(C(=O)Nc4cc(Cl)c(C#N)cc4F)C3)c(F)cc21` (mixture of isomers) [Example 348, (2R)—N^2-(5-chloro-4-cyano-2-fluorophenyl)-N^4-(3-((2,2-difluorocyclopropyl)methyl)-7-fluoro-1-isopropyl-2,4-dioxo-1,2,3,4-tetrahydroquinazolin-6-yl)morpholine-2,4-dicarboxamide (mixture of two stereoisomers)], the inhibition at 1 µM is 102% in assay [1] and 107% in assay [2]. Moreover, in assay [3], the inhibition at 3 µM worked out at 107%.
Consider `CC(C)n1c(=O)n(CC2CC2(F)F)c(=O)c2cc(NC(=O)N3CCOC(C(=O)Nc4cnc(C#N)c(Cl)c4)C3)c(F)cc21` (mixture of isomers) [Example 356, (2R)—N^2-(5-chloro-6-cyanopyridin-3-yl)-N^4-(3-((2,2-difluorocyclopropyl)methyl)-7-fluoro-1-isopropyl-2,4-dioxo-1,2,3,4-tetrahydroquinazolin-6-yl)morpholine-2,4-dicarboxamide (mixture of two stereoisomers)], for which the values for the inhibition at 1 µM in assay [1] and in assay [2] were 102% and 108%, respectively. The inhibition at 3 µM in assay [3] was found to be 107%.
In the same order, the values of `CC(C)n1c(=O)n(CC2CC2(F)F)c(=O)c2cc(NC(=O)N3CCCC(n4cnc5cc(C#N)ccc5c4=O)C3)c(F)cc21` (mixture of isomers) [Example 360, (3R)-3-(7-cyano-4-oxoquinazoline-3(4H)-yl)-N-(3-((2,2-difluorocyclopropyl)methyl)-7-fluoro-1-isopropyl-2,4-dioxo-1,2,3,4-tetrahydroquinazolin-6-yl)piperidine-1-carboxamide (mixture of two stereoisomers)] are 101%, 105% and 107%.
In the same order, the values of `CC(C)n1c(=O)n(CC2CC2(F)F)c(=O)c2cc(NC(=O)N3CCOC(C(=O)Nc4ccc(C#N)c(Cl)c4)C3)c(F)cc21` (single isomer, unassigned) [Example 366, (2R)—N^2-(3-chloro-4-cyanophenyl)-N^4-(3-(((1R or 1S)-2,2-difluorocyclopropyl)methyl)-7-fluoro-1-isopropyl-2,4-dioxo-1,2,3,4-tetrahydroquinazolin-6-yl)morpholine-2,4-dicarboxamide (one stereoisomer, quinazolinedione: derived from tR1)] are 102%, 105% and 108%.
In the same order, the values of `CC(C)n1c(=O)n(CC2CC2(F)F)c(=O)c2cc(NC(=O)N3CCCC(n4cnc5cc(C#N)ccc5c4=O)C3)c(F)cc21` (single isomer, unassigned) [Example 367, (3R)-3-(7-cyano-4-oxoquinazoline-3(4H)-yl)-N-(3-(((1R or 1S)-2,2-difluorocyclopropyl)methyl)-7-fluoro-1-isopropyl-2,4-dioxo-1,2,3,4-tetrahydroquinazolin-6-yl)piperidine-1-carboxamide (one stereoisomer, quinazolinedione: derived from tR1)] are 102%, 105% and 110%.
Regarding `CC(C)n1c(=O)n(CC2CC2(F)F)c(=O)c2cc(NC(=O)N3CCOC(C(=O)Nc4ccc(C#N)c(Cl)c4)C3)c(F)cc21` (single isomer, unassigned) [Example 368, (2R)—N^2-(3-chloro-4-cyanophenyl)-N^4-(3-(((1R or 1S)-2,2-difluorocyclopropyl)methyl)-7-fluoro-1-isopropyl-2,4-dioxo-1,2,3,4-tetrahydroquinazolin-6-yl)morpholine-2,4-dicarboxamide (one stereoisomer, quinazolinedione: derived from tR2)], in assay [1], the “binding inhibitory rate (%) of fluorescent-labeled synthetic ligand to RORγt at test compound 1 μM” value (“binding inhibitory rate (%)” for short) worked out at 102%. The “signal value inhibitory rate (%) at test compound 1 μM” value in assay [2] (test compound 1 μM) was found to be 105%. For the same molecule, the “luminescence level inhibitory rate (%) at test compound 3 μM” value in assay [3] is on record as 108%.
In the case of `CC(C)n1c(=O)n(CC2CC2(F)F)c(=O)c2cc(NC(=O)N3CCCC(n4cnc5cc(C#N)ccc5c4=O)C3)c(F)cc21` (single isomer, unassigned) [Example 369, (3R)-3-(7-cyano-4-oxoquinazoline-3(4H)-yl)-N-(3-(((1R or 1S)-2,2-difluorocyclopropyl)methyl)-7-fluoro-1-isopropyl-2,4-dioxo-1,2,3,4-tetrahydroquinazolin-6-yl)piperidine-1-carboxamide (one stereoisomer, quinazolinedione: derived from tR2)], in assay [1], the “binding inhibitory rate (%)” value was 102%. Further, in assay [3], the “luminescence level inhibitory rate (%) at test compound 3 μM” value stood at 110%.
On to `CC(C(F)F)n1c(=O)n(CC2CC2)c(=O)c2cc(NC(=O)N3CCOC(C(=O)Nc4ccc(C#N)c(Cl)c4)C3)c(F)cc21` [Example 371, (2R)-N^2-(3-chloro-4-cyanophenyl)-N^4-(3-(cyclopropylmethyl)-1-(1,1-difluoropropan-2-yl)-7-fluoro-2,4-dioxo-1,2,3,4-tetrahydro-quinazolin-6-yl)-morpholine-2,4-dicarboxamide (one stereoisomer, quinazolinedione: derived from tR1)], for which the inhibition at 1 µM in assay [1] was found to be 95%.
With `CC(C(F)F)n1c(=O)n(CC2CC2)c(=O)c2cc(NC(=O)N3CCCC(n4cnc5cc(C#N)ccc5c4=O)C3)c(F)cc21` [Example 372, (3R)-3-(7-cyano-4-oxoquinazoline-3(4H)-yl)-N-(3-(cyclopropylmethyl)-1-(1,1-difluoropropan-2-yl)-7-fluoro-2,4-dioxo-1,2,3,4-tetrahydro-quinazolin-6-yl)piperidine-1-carboxamide (one stereoisomer, quinazolinedione: derived from tR1)], the inhibition at 1 µM in assay [1] stood at 101%.
For the molecule `CC(C(F)F)n1c(=O)n(CC2CC2)c(=O)c2cc(NC(=O)N3CCOC(C(=O)Nc4ccc(C#N)c(Cl)c4)C3)c(F)cc21` [Example 373, (2R)-N^2-(3-chloro-4-cyanophenyl)-N^4-(3-(cyclopropylmethyl)-1-(1,1-difluoropropan-2-yl)-7-fluoro-2,4-dioxo-1,2,3,4-tetrahydro-quinazolin-6-yl)morpholine-2,4-dicarboxamide (one stereoisomer, quinazolinedione: derived from tR2)], the “binding inhibitory rate (%)” value in assay [1] (1 µM) worked out at 97%.
Take `CC(C(F)F)n1c(=O)n(CC2CC2)c(=O)c2cc(NC(=O)N3CCCC(n4cnc5cc(C#N)ccc5c4=O)C3)c(F)cc21` [Example 374, (3R)-3-(7-cyano-4-oxoquinazoline-3(4H)-yl)-N-(3-(cyclopropylmethyl)-1-(1,1-difluoropropan-2-yl)-7-fluoro-2,4-dioxo-1,2,3,4-tetrahydro-quinazolin-6-yl)piperidine-1-carboxamide (one stereoisomer, quinazolinedione: derived from tR2)]: the “binding inhibitory rate (%)” value in assay [1] (1 µM) is 102%.
Take `CC(C)n1c(=O)n(CC2CC2)c(=O)c2cc(NC(=O)N3CCC(F)(F)C(n4cnc5cc(C#N)ccc5c4=O)C3)c(F)cc21` (stereo not drawn) [Example 375, 3-(7-cyano-4-oxoquina-zoline-3(4H)-yl)-N-(3-(cyclopropylmethyl)-7-fluoro-1-isopropyl-2,4-dioxo-1,2,3,4-tetrahydro-quinazolin-6-yl)-4,4-difluoropiperidine-1-carboxamide (one stereoisomer, piperidine: derived from tR1)]: the inhibition at 1 µM in assay [1] came to 95%.
